Measured values: patent US4544512A, “Tridecyloxy- or tetradecyloxy-propane derivatives” (Takeda Chemical Industries, Ltd., priority 1980, dated 1985)
Values after ≈ are worked out from the molar mass of the structure shown. Like-named read-outs stand apart in the source and are kept apart here.

How the values were obtained:
Type in all cases: cell-based
[1] = tested on: Cryptococcus unigtullatas; assay: Antimycotic activity, paper disk inhibition zone; details: 48 h, concentration of 3 mg/ml, paper disk 8 mm, 37° C., 2 days, read-out: Inhibition zone diameters
Method: Referring to the antimycotic activity presented in Table 5, Cryptococcus unigtullatas and others were used as the test microbes, a paper disk (8 mm in diameter) was immersed in an aqueous solution of each test compound having a concentration of 3 mg/ml, air dried and placed on an agar medium, then incubation was conducted at 37° C. for 2 days, and the diameter (mm) of the inhibition zone was measured.

[2] = tested on: human promyelocytic leukemia HL-60 cells; assay: Induced differentiation of human promyelocytic leukemia HL-60 cells; details: six day incubation; optimal dose: C00021 1 μg/ml, drawing 22 4 μg/ml
Method: By employing soft-agar medium, incubation of human promyelocytic leukemia HL-60 cells was conducted in the presence of a drug at its optimal concentration. It was observed that the leukemia HL-60 cells were gradually changing into mature myeloid cells or phagocytic cells as the induced differentiation proceeded. After six day incubation, number of these cells was counted, and the respective ratios (%) relative to the total number of these cells were calculated, as shown in Table 3. Additionally stating, these changes were not observed under the conditions devoid of the drugs.

Alternaria solani = assay: Antifungal activity, serial dilution method (MIC); details: 1% glucose-bouillon agar medium, read-out: MIC Alternaria solani (potato early blight)
Cochliobolus miyabeanus = assay: Antifungal activity, serial dilution method (MIC); details: Bipolaris oryzae, read-out: MIC Cochliobolus miyabeanus (rice Helminthosporium leaf spot)
Botrytis cinerea = assay: Antifungal activity, serial dilution method (MIC); details: read-out: MIC Botrytis cinerea (gray mold)
Leptosphaeria salvinii = assay: Antifungal activity, serial dilution method (MIC); details: Nakataea oryzae, read-out: MIC Leptosphaeria salvinii (rice stem rot)
Gibberella fujikuroi = assay: Antifungal activity, serial dilution method (MIC); details: Fusarium fujikuroi, read-out: MIC Gibberella fujikuroi (rice Bakanae-disease)
[3] = tested on: Colletotrichum lagenarium; assay: Antifungal activity, serial dilution method (MIC); details: Colletotrichum orbiculare, read-out: MIC Colletotrichum lagenarium (cucumber anthracnose)
Pyricularia oryzae = assay: microbe, parasite or virus in culture; details: read-out: MIC Pyricularia oryzae (rice blast)
Tetrahymena pyriformis W = assay: Antiprotozoal activity, broth dilution method (MIC); details: 28° C., 44-48 hours, read-out: MIC against Tetrahymena pyriformis W
Method: Referring to the antiprotozoal activity given in Table 4, the microbial growth inhibiting activity (MIC) of each compound of this invention was assayed by the broth dilution method by incubating Tetrahymena pyriformis W strain as the test organism at 28° C. for 44-48 hours, using a test culture medium comprising 20 g of Tryptose peptine (Difco), 1 g of yeast extract, 2 g of glucose. 1,000 ml of distilled water and 10 ml of 1M phosphate buffer (pH 7.0).

[4] = tested on: Trichophyton rubrum IFO 5467 (DT-63); assay: Antitrichophyton activity, serial dilution method (MIC); details: IFO5467, Sabouraud's agar medium
Method: (§1) Referring to the antitrichophyton activity shown in Table 7, MIC values of tested compounds were determined by the serial dilution method using Sabouraud's agar medium.

[5] = tested on: Trichophyton mentagrophytes IFO (DT-66); assay: as above; details: Sabouraud's agar medium
Method: as §1

[6] = tested on: mouse myeloid leukemia M1 cells; assay: Induced differentiation of mouse myeloid leukemia M1 cells; details: at optimal dose: C00019 1 μg/ml, drawing 20 2 μg/ml
Method: By employing soft-agar medium having similar components to those in Test Example 1, incubation of myeloid leukemia (M1) cells harvested from mice was conducted in the presence of the test compound in its optimal concentration. Observation on various biological and biochemical properties caused by induced differentiation was conducted. In Table 2 are given the results obtained by determination of the degree of the induced differentiation employing, as the indexes, among those properties, morphological changes (matured granulocytes, matured macrophages, others caused by changes in appearance of cells at the stage of differentiation),phagocytic activity (plastic small pieces.phagocytosis) and lysozyme activity. Additionally stating, these morphological changes were not observed under the conditions devoid of the drugs.

[7] = 1% glucose-bouillon agar medium

CCCCCCCCCCCCCCOCC(COP(=O)([O-])OCC[N+](C)(C)C)OC (stereo not shown) [drawing 27 R = C14 H29]
zone of inhibition at 3000 µg/mL [1]: 22 mm

CCCCCCCCCCCCOCC(COP(=O)(O)OCCN)OC (stereo not shown) [drawing 28 R = C12 H25]
zone of inhibition at 3000 µg/mL [1]: < 5 mm

CCCCCCCCCCCCCCOCC(COP(=O)([O-])OCC[N+](C)(C)C)OC (stereo not shown) [drawing 22]
Mature myeloid cells [2]: 91.3% | NBT (nitro blue tetrazolium) reduction [2]: 87.0% | Phagocytic cells [2]: 68.2%

CCCCCCCCCCCCCCOCC(COP(=O)([O-])OCC[N+](C)(C)C)OC (stereo not shown) [Compound (A) R = C14 H29]
MIC (Alternaria solani): 100 µg/mL (≈ 214 µM) | MIC (Cochliobolus miyabeanus): 12.5 µg/mL (≈ 26.7 µM) | MIC (Botrytis cinerea; [7]): 6.25 µg/mL (≈ 13.4 µM) | MIC (Leptosphaeria salvinii): 3.12 µg/mL (≈ 6.67 µM) | MIC (Gibberella fujikuroi; [7]): 25 µg/mL (≈ 53.5 µM) | MIC [3, 7]: 25 µg/mL (≈ 53.5 µM) | MIC (Pyricularia oryzae): 3.12 µg/mL (≈ 6.67 µM)

CCCCCCCCCCCCCCCCCCOCC(COP(=O)([O-])OCC[N+](C)(C)C)OC (stereo not shown) [drawing 23 R = C18 H37]
MIC (Tetrahymena pyriformis W): 1 µg/mL (≈ 1.91 µM)

CCCCCCCCCCCCCCCCCCOCCCOP(=O)([O-])OCC[N+](C)(C)C [Compound (B) R = C18 H37, reference compound]
MIC (Alternaria solani): > 100 µg/mL | MIC (Cochliobolus miyabeanus): > 100 µg/mL | MIC (Botrytis cinerea; [7]): 25 µg/mL (≈ 50.6 µM) | MIC (Leptosphaeria salvinii; [7]): 50 µg/mL (≈ 101 µM) | MIC (Gibberella fujikuroi; [7]): > 100 µg/mL | MIC [3, 7]: > 100 µg/mL | MIC (Pyricularia oryzae): 12.5 µg/mL (≈ 25.3 µM)

CCCCCCCCCCCCOCC(COP(=O)([O-])OCC[N+](C)(C)C)OC (stereo not shown) [R = C12 H25, A = drawing 32, reference compound]
MIC [4]: 6.25 µg/mL (≈ 14.2 µM) | MIC [5]: 25 µg/mL (≈ 56.9 µM)

CCCCCCCCCCCCOCC(COP(=O)([O-])OCC[N+](C)(C)C)OC (stereo not shown) [Compound (A) R = C12 H25, reference compound]
MIC (Alternaria solani): 50 µg/mL (≈ 114 µM) | MIC (Cochliobolus miyabeanus): > 100 µg/mL | MIC (Botrytis cinerea; [7]): 50 µg/mL (≈ 114 µM) | MIC (Leptosphaeria salvinii; [7]): 25 µg/mL (≈ 56.9 µM) | MIC (Gibberella fujikuroi; [7]): > 100 µg/mL | MIC [3, 7]: 12.5 µg/mL (≈ 28.4 µM) | MIC (Pyricularia oryzae): 25 µg/mL (≈ 56.9 µM)

CCCCCCCCCCCCCCOCCCOP(=O)([O-])OCC[N+](C)(C)C [Compound (B) R = C14 H29]
MIC (Alternaria solani): 50 µg/mL (≈ 114 µM) | MIC (Cochliobolus miyabeanus): 12.5 µg/mL (≈ 28.6 µM) | MIC (Botrytis cinerea): 6.25 µg/mL (≈ 14.3 µM) | MIC (Leptosphaeria salvinii): 6.25 µg/mL (≈ 14.3 µM) | MIC (Gibberella fujikuroi): 12.5 µg/mL (≈ 28.6 µM) | MIC [3]: 6.25 µg/mL (≈ 14.3 µM) | MIC (Pyricularia oryzae): 6.25 µg/mL (≈ 14.3 µM)

CCCCCCCCCCCCCOCC(COP(=O)([O-])OCC[N+](C)(C)C)OC (stereo not shown) [R = C13 H27, A = drawing 33]
MIC [4]: 3.12 µg/mL (≈ 6.88 µM) | MIC [5]: 6.25 µg/mL (≈ 13.8 µM)

CCCCCCCCCCCCCCCCCCOCC(COP(=O)([O-])OCC[N+](C)(C)C)OC (stereo not shown) [drawing 21, reference compound]
Mature myeloid cells [2]: 43.0% | NBT (nitro blue tetrazolium) reduction [2]: 47.8% | Phagocytic cells [2]: 39.8%

CCCCCCCCCCCCCCCCCCOCC(COP(=O)(O)OCCN)OC (stereo not shown) [drawing 28 R = C18 H37]
zone of inhibition at 3000 µg/mL [1]: < 5 mm

CCCCCCCCCCCCCCOCCCOP(=O)([O-])OCC[N+](C)(C)C [drawing 25 R = C14 H29]
MIC (Tetrahymena pyriformis W): 0.2 µg/mL (≈ 0.457 µM)

CCCCCCCCCCCCCCOCC(COP(=O)([O-])OCC[N+](C)(C)C)OC (stereo not shown) [drawing 20]
Phagocytic cells ([6]; None 2.0 %): 25.9% | Morphological change ([6]; None 2.1 %): 53.4% | Lysozyme activity ([6]; None 2.2): 80.1 units/mg protein

CCCCCCCCCCCCCOCCCOP(=O)([O-])OCC[N+](C)(C)C [drawing 29 R = C13 H27]
zone of inhibition at 3000 µg/mL [1]: 20 mm

CCCCCCCCCCCCOCCCOP(=O)(O)OCCN [drawing 26 R = C12 H25]
MIC (Tetrahymena pyriformis W): 2 µg/mL (≈ 5.44 µM)

CCCCCCCCCCCCOCCCOP(=O)([O-])OCC[N+](C)(C)C [drawing 29 R = C12 H25]
zone of inhibition at 3000 µg/mL [1]: 19 mm

CCCCCCCCCCCCCCCCCCOCC(COP(=O)(O)OCCN)OC (stereo not shown) [drawing 24 R = C18 H37]
MIC (Tetrahymena pyriformis W): 4 µg/mL (≈ 8.3 µM)

CCCCCCCCCCCCOCC(COP(=O)([O-])OCC[N+](C)(C)C)OC (stereo not shown) [drawing 27 R = C12 H25]
zone of inhibition at 3000 µg/mL [1]: 15 mm

CCCCCCCCCCCCCOCCCOP(=O)([O-])OCC[N+](C)(C)C [drawing 25 R = C13 H27]
MIC (Tetrahymena pyriformis W): 0.2 µg/mL (≈ 0.472 µM)
